Measured values reported in US20030207813A1, “Retroviral protease inhibitor combinations” (priority 1995, published 2003).
Converted amounts (≈) assume the structure as drawn.

The compounds below were run on HIV-1 strain SF-162 (assay: Acute infectivity assay in PHA-activated donor lymphocytes, isolate SF162). Details: Human immunodeficiency virus 1, Lymphocyte, Table 1, read-out: Virus Isolate (EC50 ng/mL) SF162.
Format: cell-based
Protocol: Approximately 3×10^7 cells are activated for 48 hours with about 3-5 μg/ml PHA in RPMI continuing 10% fetal bovine serum and IL-2 (10 U/ml). Quantitated virus stocks are added to the activated lymphocyte suspension at a multiplicity of infection of about 0.001-0.01. The cell-virus suspension is incubated at 37° C. for 2 hours to allow virus absorption. The residual virus inoculum is removed by centrifugation and the cells are resuspended in RPMI containing 10% FBS and 10 U/ml IL-2. These infected cells are added to the test-article diluted in complete tissue culture medium from a stock (10 mg/ml) in DMSO in 96 well microtiter plates to give about 5×10^5 cells per well per 200 μl. Infected, untreated cells and cells treated with DMSO alone (0.1%) or either AZT or DDI were used as controls. The cultures were examined for syncytia formation on days 7 and 11 post-infection or the supernants tested for reverse transcriptase activity or p24 antigen.
RF represents the HIV-1 strain HIV-LRF and RFR represents a mixture of resistant strains obtained by selection of RF against the compound of Example 1. RFR comprises a mixture of viral strains having protease genotypes of G48V (14/40 clones); G48V, V82A (18/40 clones); G48V, L90S (2/40 clones); G48V, 154T, V82A (1/40 clones); G48M (1/40 clones); G48V, Q61H (1/40 clones); V13I, G48V (1/40 clones); G48V, F53L, V82A (1/40 clones); and G48V, V82A, C95Y (1/40 clones). RFR2 represents a mixture of resistant strains obtained by cloning RFR by three rounds of growth at limiting dilution. RFR2 comprises a mixture of viral strains having protease genotypes of G48V, V82A (13/15 clones); G17E, G48V, V82A (1/15 clones); and G48V, V82A, N37D, N88D (1/15 clones). RFRR represents a mixture of resistant strains obtained by selection of RF against the compounds of Examples 1 and 2 and then cloning by three rounds of growth at limiting dilution. RFRR comprises a mixture of viral strains having protease genotypes of G48V, 154T, L63P, V82A (7/9 clones); G48V, 154T, L63P, V82A, N88S (1/9 clones); and G48V, 154T, L63P, G73M, V82A (1/9 clones). SF162 represents the HIV-1 strain SF-162 and SF162R represents a mixture of resistant strains obtained by selection of SF162 against the compound of Example 1. SF162R comprises a mixture of viral strains having protease genotypes of M461, F53L, L63P, A71V, N88D (2/3 clones); and M46I, F53L, L63P, A71V, N88D, Q92R (1/3 clones). 89-959 represents the HIV-1 strain 89-959 and 89-959R represents a mixture of resistant strains obtained by selection of 89-959 against the compound of Example 2. 89-959R comprises a mixture of viral strains having protease genotypes of N88S (4/5 clones); and D25N, T26A, D30N, D37N, R41K, G73D, R87K, N88S (1/4 clones). NL4 represents the HIV-1 strain HIV-1NL4-3. NL4(G48V) represents a strain having a synthetically generated site-directed mutation in the protease from glycine to valine at amino acid position number 48. NL4(I84V) represents a strain having a synthetically generated site-directed mutation in the protease from isoleucine to valine at amino acid position number 84. NL4(R8Q,M46I) represents a strain having synthetically generated site-directed mutations in the protease from arginine to glutamine at amino acid position number 8 and methionine to isoleucine at amino acid position number 46. NL4(P22-538) represents a mixture of resistant strains obtained by selection of HIV-1NL4-3 against the compound of Example 10 after 22 passages comprising protease genotypes M46I, L63P, A71V, V82F, I84V (4/10); M46I, L63P, V82F, I84V (3/10); and M46I, A71V, V82F, I84V (3/10). NL4(P37-538) represents resistant strains obtained by selection of HIV-1NL4-3 against the compound of Example 10 after 37 passages comprising protease genotype M46I, L63P, A71V, 184A. NL4(538/524) represents resistant strains obtained by selection of NL4(P22-538) against the compound of Example 5 after 24 passages comprising protease genotype M46I, L63P, A71V, 184A. […]

Q: For `CNCC(=O)N[C@H](C(=O)N[C@@H](Cc1ccccc1)[C@H](O)CN(CCC(C)C)C(=O)NC(C)(C)C)C(C)(C)C` [Example 2, (2R,3S)-3-(N-methylaminoacetyl-L-tert-butylglycinyl)amino-1-(N-isoamyl-N-(tert-butylcarbamoyl))amino-4-phenyl-2-butanol], which EC50 is on record?
A: 2 ng/mL (≈ 3.75 nM)

Q: `CC(C)(C)NC(=O)[C@@H]1CN(Cc2cccnc2)CCN1C[C@@H](O)C[C@@H](Cc1ccccc1)C(=O)N[C@H]1c2ccccc2C[C@H]1O` [Example 5, N-(2(R)-Hydroxy-1(S)-indanyl)-2(R)-phenylmethyl-4(S)-hydroxy-5-(1-(4-(3-pyridylmethyl)-2(S)-N′-(t-butylcarboxamido)-piperazinyl))-pentaneamide] was tested. Which EC50 did it give?
A: 4 ng/mL (≈ 6.52 nM)

Q: For `CC(C)(C)NC(=O)[C@@H]1CC2CCCC[C@@H]2CN1C[C@@H](O)[C@H](Cc1ccccc1)NC(=O)[C@H](CC(N)=O)NC(=O)c1ccc2ccccc2n1` (stereo in doubt) [Example 6, N-tert-Butyl decahydro-2-[2(R)-hydroxy-4-phenyl-3(S)-[[N-(2-quinolylcarbonyl)-L-asparaginyl]amino]butyl]-(4aR,8aS)-isoquinoline-3(S)-carboxamide], which EC50 is on record?
A: 2 ng/mL (≈ 2.98 nM)

Q: For `CC(C)CN(C[C@@H](O)[C@H](Cc1ccccc1)NC(=O)[C@H](CC(N)=O)NC(=O)c1ccc2ccccc2n1)C(=O)NC(C)(C)C` (relative stereo) [Example 1, [1S-[1R*(R*),2S*]]-N^1-[3-[[[(1,1-dimethylethyl)amino]carbonyl])2-methylpropyl)amino]-2-hydroxy-1-(phenylmethyl)propyl]-2-[(2-quinolinylcarbonyl)amino]-butanediamide], which EC50 is on record?
A: 31 ng/mL (≈ 51.3 nM)

Same assay, conditions: Human immunodeficiency virus 1, Lymphocyte, Table 2, read-out: Virus Isolate (EC50 ng/mL) SF162

Q: `CC(C)CCN(C[C@@H](O)[C@H](Cc1ccccc1)NC(=O)[C@H](CC(N)=O)NC(=O)c1ccc2ccccc2n1)C(=O)NC(C)(C)C` (relative stereo) [Example 7, [1S-[1R*(R*),2S*]]-N^1-[3-[[[(1,1-dimethylethyl)amino]carbonyl](3-methylbutyl)amino]-2-hydroxy-1-(phenylmethyl)propyl]-2-[(2-quinolinylcarbonyl)amino]-butanediamide] was tested. Which EC50 did it give?
A: 1 ng/mL (≈ 1.62 nM)

Q: How did the EC50 turn out when `CC(C)CN(C[C@@H](O)[C@H](Cc1ccccc1)NC(=O)[C@H](CC(N)=O)NC(=O)c1ccc2ccccc2n1)C(=O)NC(C)(C)C` (relative stereo) [Example 1, [1S-[1R*(R*),2S*]]-N^1-[3-[[[(1,1-dimethylethyl)amino]carbonyl])2-methylpropyl)amino]-2-hydroxy-1-(phenylmethyl)propyl]-2-[(2-quinolinylcarbonyl)amino]-butanediamide] was run?
A: 2 ng/mL (≈ 3.31 nM)

Q: For `CC(C)CN(C[C@@H](O)[C@H](Cc1ccccc1)NC(=O)[C@H](CC(N)=O)NC(=O)c1ccc2ccccc2n1)S(=O)(=O)NC(C)(C)C` [Example 8, N-[3-[N^2-[N^1-(1,1-dimethylethyl)aminosulfonyl]-N^2-(2-methylpropyl)amino]-2R-hydroxy-1S-(phenylmethyl)propyl]-2S-[(2-quinolinylcarbonyl)amino]butanediamide], which EC50 is on record?
A: 1 ng/mL (≈ 1.56 nM)
